For one assay, the system named is Prototheca wickerhamii. Put plainly: Compound was tested for inactivation of sterol methyl transferase( SMT) enzyme in Prototheca wickerhamii.
A short description of assay [1]: Compound was tested for inactivation of sterol methyl transferase (SMT) enzyme in Prototheca wickerhamii.

Our source for the K inact and Ki values is ChEMBL document CHEMBL1131517, “4,4,14 alpha-trimethyl 9 beta,19-cyclo-5 alpha-26-homocholesta-24,26-dien-3 beta-ol: a potent mechanism-based inactivator of delta 24(25)- to delta 25(27)-sterol methyl transferase” (Bioorg Med Chem Lett, 1998).

Molecules are shown by their SMILES.

The compound `C=C/C(C)=C/CC[C@@H](C)C1CC[C@@]2(C)C3CCC4C(C)(C)C(O)CCC45CC35CCC12C` (some centres not stated) gave a K inact with Prototheca wickerhamii of 0.3 min⁻¹. Further, the Ki in assay [1] amounted to 30 µM.
